Measurements as given in patent US20250152616A1, “COMPOSITIONS FOR AND METHODS OF TREATING, PREVENTING, AND/OR MITIGATING PAIN” (Duke University, priority 2022, published 2025).

Tested on: dissociated DRG neurons
Assay: Fura-2 calcium imaging of dissociated DRG neurons stimulated with capsaicin
Assay type: cell-based, mouse
Source text: DRG were isolated from mice using a modified version of the previously described protocol (Perner C, et al. (2021) STAR Protoc. 2:100333). Briefly, mice were euthanized and dosed in 70% ethanol to prevent fur contamination. Mice were positioned prone, and an incision was made along the spine from the neck to the base of the tail. Under a dissecting microscope, the surrounding soft tissue of the spinal column was removed from the dorsal side by Friedman-Pearson Rongeurs (Fine Science Tools, Foster City, CA, Cat #16021-14) from the mid thoracic region to the lumbosacral joint. The vertebral bone surrounding the DRG was gently crushed and removed with rongeurs exposing the spinal cord. The DRG were carefully extracted near the foramen between the vertebral levels. L3 and L4 DRG were collected for analyses. Dissected DRG were placed directly into ice-cold DMEM-F12 medium (ThermoFisher, Cat #11320033) for in vitro culture, Trizol (ThermoFisher, Cat #15596018) for PCR analyses, or 4% PFA for histology. For cell culture experiments, collected DRG were digested in digestion solution comprised of collagenase type II (Worthington, Lakewood, NJ, Cat #LS004176) and dispase (1.5 mg/mL each) dissolved in DMEM/F12. DRG were agitated in a digestion solution on an orbital shaker at 60 rpm and 37° C. for 20 minutes and repeated thrice with fresh digestion solution. Next, the digestion solution was replaced with trypsin-EDTA (0.025%) in DMEM/F12 and incubated for an additional 15 min to disrupt the remaining cell-to-cell adhesions. The solution was then replaced with DMEM/F12 and FBS (1:3) to neutralize trypsin. DRG were triturated to create a cell suspension and gently layered onto 15% bovine serum albumin (BSA) solution without mixing and centrifuged for 6 min at 280 g with minimal acceleration and no deceleration to separate non-neuronal cells and debris (Owen D E, et al. (2012) Methods Mol Biol. 846:179-187). […]
Intracellular cytosolic Ca^2+ was evaluated by Fura-2 loaded DRG neurons (Khomula E V, et al. (2019) J Neurosci. 39:7061-7073). […]

Structure (SMILES): Nc1ncnc2c1ncn2[C@@H]1O[C@H](CO)[C@@H](O)[C@H]1O [adenosine]
- NGF-increased functional responses to capsaicin (Fura-2 average and peak intensity) (NGF 200 ng/mL 1 day, adenosine 5 μM for 5 min, capsaicin 100 nM): attenuated
- functional activity of DRG neurons (normalized peak intensity, calcium imaging) (initial screening, two different concentrations of adenosine, capsaicin stimulation): decreased
